Measured values as given in US20250100969A1, “COMPOUND, RUBBER BLEND CONTAINING THE COMPOUND, VEHICLE TIRE COMPRISING THE RUBBER BLEND IN AT LEAST ONE COMPONENT, PROCESS FOR PRODUCING THE COMPOUND, AND USE OF THE COMPOUND AS AN AGE RESISTOR AND/OR ANTIOXIDANT” (Continental Reifen Deutschland GmbH, priority 2021, published 2025).

Experiment: solubility in rubber mixtures
Assay type: physicochemical
Conditions: in particular for vehicle tires and other technical rubber articles

**Q.** With `CC(C)CC(C)Nc1ccc2[nH]c3ccccc3c2c1` (stereo not shown) [compound according to the invention, N-(1,3-dimethylbutyl)-9H-carbazol-3-amine] as the molecule, how does the “solubility in rubber mixtures” value read?
**A.** very good
